# Assay results published in patent US8754075B2, “1,3-oxazines as BACE1 and/or BACE2 inhibitors” (Hoffmann-La Roche Inc., priority 2011, dated 2014).
# pIC50: −log10 of the molar value.
# Tests used:
# BACE1 = BACE1 (Homo sapiens (Human), UniProt P56817); assay: Cellular Aβ-lowering assay; format: cell-based; settings: HEK293 cells stably expressing human APP wt (APP695); Aβ40 in supernatant by ELISA after 18-20 hrs
# Protocol: Cellular Aβ-Lowering Assay: Human HEK293 cells which are stably transfected with a vector expressing a cDNA of the human APP wt gene (APP695) were used to assess the potency of the compounds in a cellular assay. The cells were seeded in 96-well microtiter plates in cell culture medium (Iscove, plus 10% (v/v) fetal bovine serum, glutamine, penicillin/streptomycin) to about 80% confluence and the compounds were added at a 10× concentration in 1/10 volume of medium without FCS containing 8% DMSO (final concentration of DMSO was kept at 0.8% v/v). After 18-20 hrs incubation at 37° C. and 5% CO2 in a humidified incubator the culture supernatant was harvested for the determination of Aβ40 concentrations. […] After blocking of non-specific binding sites with e.g. 1% BSA and washing, the culture supernatants were added in suitable dilutions together with a horseradish peroxidase-coupled Aβ detection antibody (e.g., antibody 4G8, Senetek, Maryland Heights, Mo.) and incubated for 5 to 7 hrs. Subsequently the wells of the microtiter plate were washed extensively with Tris-buffered saline containing 0.05% Tween 20 and the assay was developed with tetramethylbenzidine/H2O2 in citric acid buffer. After stopping the reaction with one volume […] the reaction was measured in an ELISA reader at 450 nm wavelength. The concentrations of Aβ in the culture supernatants were calculated from a standard curve obtained with known amounts of pure Aβ peptide.
# BACE2 = BACE2 (Rattus norvegicus (Rat), UniProt Q6IE75); assay: Assay for BACE inhibition by measuring cellular TMEM27 cleavage; format: cell-based; settings: INS-TMEM27 (INS1e rat cell line, inducible hTMEM27); shed TMEM27 by ELISA
# BACE2, sequence (Q6IE75 63-514): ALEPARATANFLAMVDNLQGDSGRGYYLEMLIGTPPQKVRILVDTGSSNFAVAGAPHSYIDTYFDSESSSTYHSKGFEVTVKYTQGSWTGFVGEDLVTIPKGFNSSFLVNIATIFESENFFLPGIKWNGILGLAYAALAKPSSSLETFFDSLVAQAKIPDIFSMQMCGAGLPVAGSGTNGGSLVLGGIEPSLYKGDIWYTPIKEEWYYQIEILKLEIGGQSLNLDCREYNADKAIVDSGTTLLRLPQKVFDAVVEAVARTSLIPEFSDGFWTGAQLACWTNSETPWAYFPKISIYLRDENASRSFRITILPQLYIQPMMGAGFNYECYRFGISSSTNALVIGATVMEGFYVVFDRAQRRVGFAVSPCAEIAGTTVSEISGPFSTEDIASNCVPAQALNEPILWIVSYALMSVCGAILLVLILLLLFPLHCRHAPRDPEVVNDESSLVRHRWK
# From the text: Assay for BACE Inhibition by Measuring Cellular TMEM27 Cleavage:
# The assay uses the principle of inhibition of human TMEM27 cleavage by endogenous cellular BACE2 in the Ins1e rat cell line and shedding from the cell surface into the culture medium, followed by detection in an ELISA assay Inhibition of BACE2 prevents the cleavage and shedding in a dose-dependent manner.
# The stable cell line “INS-TMEM27” represents an INS1e-derived cell line with inducible expression (using the TetOn system) of full-length hTMEM27 in a doxycycline-dependent manner. The cells are cultured throughout the experiment in RPMI1640+Glutamax (Invitrogen) Penicillin/Streptomycin, 10% Fetal bovine serum, […], […], 100 micrograms/ml G418 and 100 microgram/ml hygromycin and are grown inadherent culture at 37° C. in a standard CO2 cell culture incubator.
# INS-TMEM27 cells are seeded in 96-well plates. After 2 days in culture, BACE2 inhibitor is added in a range of concentrations as required by the assay and after a further two hours, doxycycline is added to a final concentration of 500 ng/ml. The cells are incubated for a further 46 hours and the supernatant harvested for detection of shed TMEM27.
# An ELISA assay (using a pair of mouse anti-human-TMEM27 antibodies, raised against the extracellular domain of TMEM27) is used for detection of TMEM27 in the culture medium. An EC50 for BACE2 inhibition is calculated using the ELISA readout for each inhibitor concentration with standard curve-fitting software such as XLFit for the Excel spreadsheet program.
# BACE1, sequence (P56817 46-501): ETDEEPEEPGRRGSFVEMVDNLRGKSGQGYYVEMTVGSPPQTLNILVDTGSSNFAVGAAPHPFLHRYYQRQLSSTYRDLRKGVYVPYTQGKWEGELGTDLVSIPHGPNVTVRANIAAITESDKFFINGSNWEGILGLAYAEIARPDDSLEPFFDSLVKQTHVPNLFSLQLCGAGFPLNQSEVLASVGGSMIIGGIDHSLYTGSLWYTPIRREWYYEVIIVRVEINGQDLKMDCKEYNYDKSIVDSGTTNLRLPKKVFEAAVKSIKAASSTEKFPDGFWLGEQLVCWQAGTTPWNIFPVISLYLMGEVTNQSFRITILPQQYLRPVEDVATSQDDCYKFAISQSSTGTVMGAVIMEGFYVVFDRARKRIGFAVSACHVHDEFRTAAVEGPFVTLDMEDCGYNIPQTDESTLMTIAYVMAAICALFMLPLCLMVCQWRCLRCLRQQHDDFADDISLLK
SMILES,pIC50 (BACE1),pIC50 (BACE2)
"C[C@]1(c2cc(NC(=O)c3ncc(C(F)(F)F)cc3Cl)ccc2F)N=C(N)OC[C@@H]1F [Example 9, 3-Chloro-5-trifluoromethyl-pyridine-2-carboxylic acid [3-((4R,5R)-2-amino-5-fluoro-4-methyl-5,6-dihydro-4H-[1,3]oxazin-4-yl)-4-fluoro-phenyl]-amide]",8.70,6.91
"C[C@]1(c2cc(NC(=O)c3ccc(C(F)F)cn3)ccc2F)N=C(N)OC[C@@H]1F [Example 11, 5-Difluoromethyl-pyridine-2-carboxylic acid [3-((4R,5R)-2-amino-5-fluoro-4-methyl-5,6-dihydro-4H-[1,3]oxazin-4-yl)-4-fluoro-phenyl]-amide]",8.52,9.00
"COc1ccc(C(=O)Nc2ccc(F)c([C@@]3(C)N=C(N)OC[C@@H]3F)c2)nc1 [Example 13, 5-Methoxy-pyridine-2-carboxylic acid [3-((4R,5R)-2-amino-5-fluoro-4-methyl-5,6-dihydro-4H-[1,3]oxazin-4-yl)-4-fluoro-phenyl]-amide]",8.40,7.19
"C[C@]1(c2cc(NC(=O)c3ccc(C#CC4CC4)cn3)ccc2F)N=C(N)OC[C@@H]1F [Example 14, 5-Cyclopropylethynyl-pyridine-2-carboxylic acid [3-((4R,5R)-2-amino-5-fluoro-4-methyl-5,6-dihydro-4H-[1,3]oxazin-4-yl)-4-fluoro-phenyl]-amide]",8.40,8.05
"C[C@]1(c2cc(NC(=O)c3cnc(C(F)F)cn3)ccc2F)N=C(N)OC[C@@H]1F [Example 15, 5-Difluoromethyl-pyrazine-2-carboxylic acid [3-((4R,5R)-2-amino-5-fluoro-4-methyl-5,6-dihydro-4H-[1,3]oxazin-4-yl)-4-fluoro-phenyl]-amide]",8.30,7.64
"C[C@]1(c2cc(NC(=O)c3cnc(OCC4CC4)cn3)ccc2F)N=C(N)OC[C@@H]1F [Example 16, 5-Cyclopropylmethoxy-pyrazine-2-carboxylic acid [3-((4R,5R)-2-amino-5-fluoro-4-methyl-5,6-dihydro-4H-[1,3]oxazin-4-yl)-4-fluoro-phenyl]-amide]",8.30,6.23
"C[C@]1(c2cc(NC(=O)c3ccc(OCC(F)(F)F)cn3)ccc2F)N=C(N)OC[C@@H]1F [Example 17, 5-(2,2,2-Trifluoro-ethoxy)-pyridine-2-carboxylic acid [3-((4R,5R)-2-amino-5-fluoro-4-methyl-5,6-dihydro-4H-[1,3]oxazin-4-yl)-4-fluoro-phenyl]-amide]",8.10,5.64
"Cc1cc(C(=O)Nc2ccc(F)c([C@@]3(C)N=C(N)OC[C@@H]3F)c2)c(C)o1 [Example 18, 2,5-Dimethyl-furan-3-carboxylic acid [3-((4R,5R)-2-amino-5-fluoro-4-methyl-5,6-dihydro-4H-[1,3]oxazin-4-yl)-4-fluoro-phenyl]-amide]",8.10,7.70
"C[C@]1(c2cc(NC(=O)c3ccc(F)cn3)ccc2F)N=C(N)OC[C@@H]1F [Example 20, 5-Fluoro-pyridine-2-carboxylic acid [3-((4R,5R)-2-amino-5-fluoro-4-methyl-5,6-dihydro-4H-[1,3]oxazin-4-yl)-4-fluoro-phenyl]-amide]",8.00,8.15
"C[C@]1(c2cc(NC(=O)c3ccc(C4CC4)cn3)ccc2F)N=C(N)OC[C@@H]1F [Example 22, 5-Cyclopropyl-pyridine-2-carboxylic acid [3-((4R,5R)-2-amino-5-fluoro-4-methyl-5,6-dihydro-4H-[1,3]oxazin-4-yl)-4-fluoro-phenyl]-amide]",7.85,6.91
"C[C@]1(c2cc(NC(=O)c3cnc(Cl)s3)ccc2F)N=C(N)OC[C@@H]1F [Example 26, 2-Chloro-thiazole-5-carboxylic acid [3-((4R,5R)-2-amino-5-fluoro-4-methyl-5,6-dihydro-4H-[1,3]oxazin-4-yl)-4-fluoro-phenyl]-amide]",7.09,5.85
